Reference: patent US12215354B2, “Differentiation of human embryonic stem cells into single hormonal insulin positive cells” (Janssen Biotech, Inc., priority 2011, dated 2025)

System: human embryonic stem cell line H1
Assay: Real-time PCR gene expression, BMP inhibition and PKC activation at S3 (Example 2)
Type: cell-based
Details: 50 nM compared with 200 nM at S3
Procedure: Cells of the human embryonic stem cell line H1 were harvested at various passages (passage 40 to passage 52) and were seeded as single cells at a density of 100,000 cells/cm^2 on MATRIGEL™ (1:30 dilution) coated dishes in mTesr™1 media supplemented with 10 μM of Y27632. Forty eight hours post-seeding, cultures were differentiated into cells of the pancreatic endocrine lineage as follows: • a. Stage 1 (Definitive Endoderm (DE)—3 days): Prior to start of DE, the cultures were washed and incubated with incomplete PBS (no Mg or Ca) for 30 seconds followed by addition of the stage 1 media. Human embryonic stem cells cultured as single cells on MATRIGEL™-coated dishes were treated with MCDB-131 medium supplemented with 0.1% fatty acid-free BSA, 0.0012 g/ml sodium bicarbonate, 1× GLUTAMAX™, and 2.5 mM D-Glucose, 100 ng/ml GDF8, and […] MCX compound (GSK3B inhibitor) for one day. Cells were then treated with MCDB-131 medium supplemented with 0.1% fatty acid-free BSA, 0.0012 g/ml sodium bicarbonate, 1× GLUTAMAX™, 2.5 mM glucose, and 100 ng/ml GDF8 for days 2-3. • b. […]
mRNA was collected at S2-S4 for all the conditions listed above and analyzed using real-time PCR. […]

c1ccc2c(-c3cnn4cc(-c5ccc(N6CCNCC6)cc5)cnc34)ccnc2c1 [LDN-193189]
induction of endocrine markers (chromogranin and NGN3): as effective as 200 nM LDN-193189
